Assay: Thermogravimetric analysis (TGA), thermal stability / decomposition
Type: physicochemical
Settings: as stated in the description, conditions not given
Method: Samples of 8.0-18.2 mg were placed in platinum TGA sample pans (CS Ceramic) and heated from room temperature to 700° C. at 20° C./min in a furnace under either inert (nitrogen) or oxidizing (air) atmosphere. The experiments were performed in triplicates (n=3) or quintuplicates (n=5). The data were exported and the TGA curves were analysed using TA Universal Analysis Software (Universal Analysis 2000 Version 4.5A, TA Instruments-Waters LLC, New Castle, DE) to determine onset degradation temperatures (Ton,degradation) and weight percent losses of the materials used in this study over the temperature intervals of interest. The values were averaged and reported as mean±standard deviation.
FIG. 3A and FIG. 3B show the TGA profiles for PLA and PCL respectively. […] The mean Ton,degradation of PLA was 278.8±3.8° C., with the average weight percent loss of 98.6±0.3% (n=3) during the decomposition step. The mean Ton,degradation of PCL was 353.1±1.7° C., and the weight percent loss averaged 97.9±1.1% (n=3).
PLA-PCL MS with a 1:9 polymer ratio lost 12.3±0.8% weight (n=3) during the first decomposition step, and 84.7±0.6% weight (n=3) during the second step. The mean weight percent loss for the PLA-PCL MS with a 5:5 ratio of PLA to PCL was 56.5±0.9% (n=3) and 38.4±1.1% (n=3) during the first and second thermal degradation steps. […]

In the case of `COC1=CC=C2[C@H]3Cc4ccc(OC)c5c4[C@@]2(CCN3C)[C@H]1O5` [THB, Thebaine], the thermal decomposition temperature was “about 183 °C”.
